Data taken from patent US9382290B2, “Aptamer-modified polymeric materials for the binding of factors in a wound environment” (KCI LICENSING, INC., priority 2011, dated 2016).
Where no end group is shown, it is not given here. [ ]: non-standard residue; d: D form. AEEA = NCCOCCOCC(=O)O

How the values were obtained:
PDGF = assay: Binding of P-16 to PDGF (statement)
VEGF [1] = assay: VEGF capture by P16-linker-ROCF construct, elution and ELISA; assay type: binding
Experimental: C1 was ROCF alone; C2 was ROCF+EMCS−P16; C3 was ROCF−EMCS+P16; C4 was silanated ROCF alone; C5=silanated ROCF+EMCS−P16; C6 was silanated ROCF−EMCS+P16; 51 was 50× Sulfo-EMCS+P16; and S2 was 100× Sulfo-EMCS+P16. W=Final subsequent PBS wash. E1=50 mM Tris, 80 mM NaCl, 250 mM Imidazole, 45 min. […] E1 (right) indicates the amount of VEGF dislodged from the foam and peptide with an […] after the last wash. […] S2 bound 584 pg/mL, whereas C4 bound 321 pg/m. S2 has the highest concentration of EMCS and therefore the most covalently bound P16. […] Data are given as mean±standard deviation.
P16 was conjugated to ROCF, incubated with VEGF, washed stringently, then eluted with an […]. In this experiment, the test group (P16-linker-foam) bound 584 pg/mL, whereas the greatest negative control bound 321 pg/mL. Non-specific binding was expected due to the hydrophobic nature of both the ROCF and the target protein VEGF.
Target sequence in this assay (P15692 207-320 limits assumed): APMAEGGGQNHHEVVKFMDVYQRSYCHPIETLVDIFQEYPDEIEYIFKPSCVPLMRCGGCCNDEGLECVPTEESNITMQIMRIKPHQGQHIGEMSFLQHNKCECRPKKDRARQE

VEGF [2] = assay: Binding of P-16 to VEGF (statement)
Target sequence in this assay (P15692 207-311 limits assumed): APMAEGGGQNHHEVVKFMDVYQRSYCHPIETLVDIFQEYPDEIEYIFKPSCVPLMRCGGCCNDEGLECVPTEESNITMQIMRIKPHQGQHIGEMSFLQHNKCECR

[3] = biological target: granulocyte macrophage colony stimulating factor (GM-CSF) (Homo sapiens, UniProt P04141); assay: GM-CSF capture by P22-modified silylated 30 PHR chitosan foam, elution and ELISA; assay type: binding; conditions: 333 ng/mL GM-CSF incubated 24 hr; unbound washed off; eluted with imidazole-based buffer E1; 30 PHR chitosan foam silylated with compound 602
Experimental: FIG. 8: Silylated with compound 602, 30 PHR Chitosan/P-22 captures more granulocyte macrophage colony stimulating factor (GM-CSF). Briefly, 333 ng/mL of GM-CSF was incubated with the samples for 24 hr. The unbound protein was washed off then the samples were eluted with an imidazole-based buffer, E1. The samples were cleaned up via buffer exchange with PBS and quantified by ELISA.
The test procedure used included the steps listed below: All buffers and reagents were prepared in advance, except the Sulfo-EMCS, which was reconstituted immediately before use. See Sulfo-EMCS Product Instructions (Thermo Scientific-Pierce), which is incorporated by reference herein in its entirety. • 1.1. BupH Borate Buffer: Two packs BupH Borate Buffer powderwere added to 1 L DI H2O as per manufacturer's instructions. • 1.2. Conjugation Buffer, BupH Borate Buffer/5 mM EDTA was prepared by dissolving 146 mg EDTA in 500 mL BupH Borate Buffer. • 1.3. Sulfo-EMCS, allowed to warm to RT, was reconstituted immediately before performing the Sulfo-EMCS addition step. […]
• 1.8. • 1.8.1. […] Use the coupons immediately for growth factor binding or transfer the moist coupons to a capped vial and store them at 4° C. until ready for use for no longer than. […] The unbound proteins were washed off then the samples were eluted with an imidazole-based buffer, E1 before a buffer exchange with PBS and quantification via ELISA.

GM-CSF = GM-CSF (Homo sapiens, UniProt P04141); assay: GM-CSF capture by P22-linker-ROCF construct, elution and ELISA; assay type: binding; conditions: upon elution; sample with the most capture peptide vs ROCF alone
Experimental: FIG. 11 provides elution results for the P22/GM-CSF experiment. P22 was obtained from the Bachem Americas Inc. 2010 peptide catalog. P22 is a GM-CSF antagonist that binds GM-CSF in an inhibitory manner. Briefly, 330 nmol P22 was conjugated to a polyurethane-based ROCF via Sulfo-EMCS chemistry. The P22-linker-foam construct was incubated with 1 μg GM-CSF overnight, washed five times, and subjected to stringent elutions. […] Upon elution, the sample with the most capture peptide, S3, outperformed ROCF alone by 49%. […] Samples S1-S3 all contained peptide-linker-foam with Sulfo-EMCS concentration increasing from S1 to S3 (S1=10× Sulfo-EMCS+P22; S2=25× Sulfo-EMCS+P22 and S3=50× Sulfo-EMCS+P22), C1 was ROCF alone, C2 was Silanated ROCF+EMCS−P22 and C3 was Silanated ROCF−EMCS+P22. There were no positive controls available for this experiment, as no technology has yet been proven to covalently conjugate peptides to polyurethane. However, positive controls were later developed for subsequent experiments based on experimental results. Data are given as mean±standard deviation.
With the -Sil bond, a “capture peptide” was next conjugated to the amino-functionalized ROCF. To do so, Sulfo-EMCS chemistry developed in Example 2 was used to conjugate a commercially available GM-CSF antagonist capture peptide, P22, to ROCF. […] The eluted GM-CSF was quantified via ELISA (FIG. 11). […]

granulocyte macrophage colony stimulating factor (GM-CSF), sequence (P04141 18-144, species assumed): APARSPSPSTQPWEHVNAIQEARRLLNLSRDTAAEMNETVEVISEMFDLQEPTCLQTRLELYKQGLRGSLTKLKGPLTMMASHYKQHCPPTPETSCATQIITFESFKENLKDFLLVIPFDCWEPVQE
GM-CSF, sequence (P04141 18-144, species assumed): as above

binding to PDGF (PDGF) | binding to VEGF (VEGF [2]) | GM-CSF captured (eluted, quantified by ELISA) [3] [pg/mL] | more GM-CSF captured than ROCF alone (GM-CSF) [%] | Substance | VEGF bound (elution E1, ELISA) (VEGF [1]; P16 conjugated to silanated ROCF via Sulfo-EMCS, incubated with VEGF, washed, E1 = 50 mM Tris, 80 mM NaCl, 250 mM Imidazole, 45 min) [pg/mL] | more VEGF bound than greatest negative control (silanated ROCF, C4) (VEGF [1]; elution data) [%]
shown to bind | shown to bind | – | – | GHQGQHIGQMS-AEEAc-Cys-NH2 (GHQGQHIGQMS[AEEA]C-NH2; N-terminus assumed; SMILES CC[C@H](C)[C@H](NC(=O)[C@H](Cc1c[nH]cn1)NC(=O)[C@H](CCC(N)=O)NC(=O)CNC(=O)[C@H](CCC(N)=O)NC(=O)[C@H](Cc1c[nH]cn1)NC(=O)CN)C(=O)NCC(=O)N[C@@H](CCC(N)=O)C(=O)N[C@@H](CCSC)C(=O)N[C@@H](CO)C(=O)NCCOCCOCC(=O)N[C@@H](CS)C(N)=O; listed as Homo sapiens) [P16, Anti-VEGF peptide designed de novo] | 584 | 82
– | – | 299 | 49 | NAIQEARRLLNLSRD (listed as Homo sapiens) [P22, Commercially available anti-GM-CSF peptide (Bachem), GM-CSF antagonist] | – | –
